Measured values taken from patent publication US20070274916A1, “Method for Identifying Compounds that Affect Expression of Tryptophan Hydroxylase Isoform 2” (priority 2003, published 2007).

Key:
Assay type in all cases: in vivo, mouse
[1] = system: TPH1 mRNA; assay: TPH1 message levels in ER-β knockout mice
Procedure: (§1) Female mice (13 to 16 wks of age) were ovariectomized (C57BL/6s from Charles River; ER Knockout animals from Taconic). Animals were fed a soy-free rodent chow and allowed a minimum of one week to recuperate from surgery and shipping. Mice were dosed subcutaneously in the morning (once daily for 4 days) with 0.1 cc of vehicle (sesame oil) or compound (3, 10, or 20 mpk dexamethasone, RU486, estradiol, or prednisolone as indicated). Approximately six hours following the fourth dose, mice were deeply anesthetized with ketamine/xylazine and brains were removed from the skull, placed ventral side up in a mouse brain block on ice, and ice-cold razor blades were inserted into the block at 1 mm intervals. The caudal extent of the hypothalamus was used as an anatomical marker for the placement of the first razor blade, and 4 blades were placed in sequential slots, caudally. The four sections were examined and the two that encompassed the greatest extent of the dorsal raphe were placed in a tube containing RNALATER (Ambion, Austin, Tex.) and placed at 4° C. overnight. Brain slices were removed from RNALATER after 24 hours and stored at −80° C. in fresh tubes.

[2] = Uterine weight of ovariectomized female mice; details: FIG. 12
[3] = system: TPH2 mRNA; assay: TPH2 mRNA in murine DRN by in situ hybridization histochemistry; details: for reduction of TPH2 mRNA levels in DRN (densitometry): ovariectomized female mice, FIG. 13B
[4] = system: TPH1 mRNA; assay: TPH1 mRNA levels in murine raphe slice preparation by real-time RT-PCR
Description: as §1, with “Mice were dosed subcutaneously in the morning (once daily for 4 days) with 0.1 cc of vehicle (sesame oil) or compound (3, 10, or 20 mpk dexamethasone, RU486, estradiol, or prednisolone as indicated).” left out
Isolation of total RNA from mouse raphe slices for real-time PCR analysis using the TAQMAN ABI PRISMS 7700 Detection System, Applied Biosystems, Foster City, Calif. was as follows. Samples were stored in RNALATER at 4° C. overnight followed by removal of RNALATER and storage at −80° C. until isolation of the total RNA (2 slices weigh 25 to 50 mg). Slices were removed from −80° C. and placed in 1.0 mL TRIZOL Reagent in FASTPREP processing tubes. Slices were homogenized with one pass at setting 6 for 30 seconds in FASTPREP 120 homogenizer using LYSING MATRIX D tubes with bead matrix followed by 20 seconds at setting 6 after all samples had been processed. Samples were set at room temperature for 5 minutes to allow for complete dissociation of nucleoprotein complexes followed by centrifugation of the samples at 12,000×g for 5 minutes at 4° C. Homogenates were transferred to 1.5 mL; microcentrifuge tubes and 100 μL BCP (Bromo-3-chloropropane) was added. Samples were vortexed for 15 seconds and set at room temperature for 2 to 3 minutes. Samples were centrifuged at 12,000×g for 15 minutes at 4° C. The aqueous layer was removed and placed in a new RNAse-free sterile 1.5 mL microcentrifuge tube. Five μL of 5 mg/μL glycogen was added to each sample and the samples were vortexed. Five hundred μL of isopropanol was added to each sample. The samples were vortexed for 15 seconds, set at room temperature 10 minutes, followed by centrifugation at 12,000×g for 15 minutes at 4° C. Supernatants were decanted and pellets washed with 500 μL ice cold 75% ethanol. Samples were centrifuged at 12,000×g for 15 minutes at 4° C., ethanol decanted, and pellets air dried for 10 minutes. Pellets were resuspended in 30 μL prewarmed RNASECURE (60° C.), and heated at 60° C. for 10 min. Samples were stored at −80° C. until DNAse treatment and cDNA synthesis.
DNase treatment and cDNA preparation with wt mouse raphe slice total RNA for TAQMAN analysis. DNase treatment using DNA-free kit (Ambion). Five μg of the total RNA sample was aliquotted to each well of a 96 well plate. An 1× DNase I solution was added to each sample (DNase I buffer, DNase I, H2O). Reactions were mixed and incubated at 37° C. for 30 minutes. Reactions were inactivated by addition of DNase inactivation reagent beads, mixed well at room temperature for 3 minutes and centrifuged at 2,500 RPM for 1 minutes at 4° C. (25 μL reactions were run and inactivated with 1/10 volume of inactivation reagent).
Reverse Transcription. A 10 μL of the DNase I-treated total RNA was added to 40 μL of 1× reverse transcription reaction mix (DEPC treated H2O, RT buffer, MgCl2, dNTP mix, random hexamers, RNase inhibitor, and MULTISCRIBE RT) and incubated at 25° C. for 10 minutes, 48° C. for 30 minutes, and 95° C. for 5 minutes. Reverse transcription was halted by the addition of EDTA. Samples were transferred to a storage plate and stored at −20° C. […]

[5] = system: TPH1 mRNA; assay: TPH1 mRNA in murine DRN by in situ hybridization histochemistry (TPH1-892 antisense riboprobe); details: 0.2 mpk s.c. once daily for four days; ovariectomized mice; FIG. 5A

Which “effect on TPH1 message levels” value [1] does the source give for C[C@]12CC[C@@H]3c4ccc(O)cc4CC[C@H]3[C@@H]1CC[C@@H]2O [17β-estradiol] here?
Its value is “no effect”.

What about the “uterine weight measurements” value [2] of the same compound?
Its value is “dramatically induced”.

And the “effect on TPH2 mRNA in the DRN” value ([3]; 0.2 mpk s.c. once daily for four days, ovariectomized mice, TPH2c riboprobe, FIG. 5B)?
The value was “no apparent effect”.

What about the “TPH1 mRNA induction in raphe slice” value ([4]; 0.2 mpk s.c. once daily for four days, ovariectomized mice, FIG. 6) of the same compound?
Its value is 1.8 fold.

What about the “effect on TPH1 mRNA in the DRN” value ([4]; male and female mice, data not shown) of the same compound?
Its value is “induces”.

What about the “TPH1 mRNA induction in the DRN” value [5] of the same compound?
The value was 3 fold.

With C[C@@H]1C[C@H]2[C@@H]3CCC4=CC(=O)C=C[C@]4(C)[C@@]3(F)[C@@H](O)C[C@]2(C)[C@@]1(O)C(=O)CO [dexamethasone] as the compound, how does the “reduction of TPH2 mRNA levels in DRN (densitometry)” value ([3]; 3 mg/kg s.c. once daily for four days) read?
The value was 28%.

And the “reduction of TPH2 mRNA levels in DRN (densitometry)” value ([3]; 10 mg/kg s.c. once daily for four days)?
The value was 36%.

What about the “effect on TPH1 mRNA levels” value ([4]; 3 mpk s.c., ovariectomized mice, FIG. 6) of the same compound?
Its value is “no effect”.

For CC#C[C@]1(O)CC[C@H]2[C@@H]3CCC4=CC(=O)CCC4=C3[C@@H](c3ccc(N(C)C)cc3)C[C@@]21C [mifepristone], which “change of TPH1 mRNA levels in response to treatment” value ([4]; murine raphe slice preparations, dose not stated, FIG. 6) is on record?
Its value is “no detectable change”.
